From patent US20190008973A1, “INTRALIPID-IODINE FOR IMAGING” (priority 2017, published 2019)
Where a name gives a salt, the structure may show the parent alone. Read-outs that look alike come from different tables or passages of the source.

Assays:
PLA(2) and PLC = details: rat, in vivo; cited from earlier work
brachial plexus [1] = details: 150 μg clonidine or 200 μg epinephrine with 0.25% bupivacaine; cited from earlier work
[2] = test system: lipid-dependent mitochondrial respiration (carnitine exchange); details: cited from earlier work
free fatty acid efflux = details: cited from earlier work; for I/R-evoked FFA efflux: 20-min ischemia, 40 min reperfusion
[3] = test system: spinal cord ischemia and reperfusion; details: intravenous; cited from earlier work
[4] = test system: post ischaemic stunned myocardium; details: dog, in vivo; cited from earlier work
[5] = test system: soft tissue anesthesia (STA); details: in vivo; cited from earlier work
mitochondrial ATPase = target: T1, mitochondrial ATPase (Homo sapiens, UniProt P06576+P25705); details: cited from earlier work; for kind of inhibition: reciprocal plots
T1 construct: mitochondrial ATPase prepared by the chloroform extraction method; from tissue; host or cells: mitochondria
T1 sequence (P25705 44-553): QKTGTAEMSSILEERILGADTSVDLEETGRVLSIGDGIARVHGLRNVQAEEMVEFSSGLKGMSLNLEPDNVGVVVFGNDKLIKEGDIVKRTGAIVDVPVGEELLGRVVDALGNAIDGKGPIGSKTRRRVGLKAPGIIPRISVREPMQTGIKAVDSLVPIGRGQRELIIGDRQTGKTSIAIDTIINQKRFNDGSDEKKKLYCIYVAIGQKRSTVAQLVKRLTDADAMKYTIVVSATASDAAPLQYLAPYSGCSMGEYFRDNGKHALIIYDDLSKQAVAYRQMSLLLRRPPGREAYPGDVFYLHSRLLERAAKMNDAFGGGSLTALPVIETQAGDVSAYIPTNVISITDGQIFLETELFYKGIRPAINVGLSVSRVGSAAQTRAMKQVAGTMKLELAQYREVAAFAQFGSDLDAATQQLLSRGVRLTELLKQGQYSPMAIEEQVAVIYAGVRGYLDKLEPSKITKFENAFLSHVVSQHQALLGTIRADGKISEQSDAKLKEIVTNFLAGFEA
T1 sequence (P06576 48-529): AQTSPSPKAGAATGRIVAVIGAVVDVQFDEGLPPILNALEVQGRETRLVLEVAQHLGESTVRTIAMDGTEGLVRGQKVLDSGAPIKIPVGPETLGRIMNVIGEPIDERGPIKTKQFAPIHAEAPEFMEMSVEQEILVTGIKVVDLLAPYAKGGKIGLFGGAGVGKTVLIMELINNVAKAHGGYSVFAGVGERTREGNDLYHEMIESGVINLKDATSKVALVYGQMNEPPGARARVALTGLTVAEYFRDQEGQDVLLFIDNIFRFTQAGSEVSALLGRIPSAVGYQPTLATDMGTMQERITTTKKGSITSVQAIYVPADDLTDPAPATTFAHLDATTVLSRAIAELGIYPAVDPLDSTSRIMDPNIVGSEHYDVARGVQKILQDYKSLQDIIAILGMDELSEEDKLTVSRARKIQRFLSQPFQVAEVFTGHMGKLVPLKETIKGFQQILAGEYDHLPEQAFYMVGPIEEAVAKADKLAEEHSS
T1 sequence (P36542 26-298 partner): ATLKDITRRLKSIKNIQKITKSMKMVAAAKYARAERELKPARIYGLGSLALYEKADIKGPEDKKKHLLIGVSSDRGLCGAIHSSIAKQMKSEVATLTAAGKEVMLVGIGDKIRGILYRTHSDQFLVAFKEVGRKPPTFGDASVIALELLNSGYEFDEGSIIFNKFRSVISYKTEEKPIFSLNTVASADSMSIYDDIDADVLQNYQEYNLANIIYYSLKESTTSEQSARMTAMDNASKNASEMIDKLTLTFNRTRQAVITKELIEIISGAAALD
T1 sequence (P30049 23-168 partner): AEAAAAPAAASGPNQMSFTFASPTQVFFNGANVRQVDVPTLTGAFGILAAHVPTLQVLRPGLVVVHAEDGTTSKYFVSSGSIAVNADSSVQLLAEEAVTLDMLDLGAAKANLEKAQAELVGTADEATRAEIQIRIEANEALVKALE
T1 sequence (P56381 2-51 partner limits assumed): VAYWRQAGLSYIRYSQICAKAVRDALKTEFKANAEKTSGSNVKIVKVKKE

[6] = target: T2, N-methyl-D-aspartate receptor channels (Mus musculus, UniProt P35438); details: cited from earlier work
T2 construct: cultured cortical neurons from the mouse; endogenous in cells; host or cells: cultured mouse cortical neurons

[7] = test system: ischemia-reperfusion (IR) injury; details: cited from earlier work
[8] = test system: fallopian tube and adnexal tissue; details: cited from earlier work
hippocampal slices = details: cited from earlier work
[9] = test system: myocardial ischemia-reperfusion injury; details: cited from earlier work
[10] = test system: propofol-mediated hypotension; details: cited from earlier work
[11] = test system: bupivacaine cardiotoxicity; design: AUC of total bupivacaine, mean (standard deviation) / AUC of the lipid-un-entrapped bupivacaine portion: concentration or dose not given beside the values; details: cited from earlier work
spinal anesthesia = details: cited from earlier work
brachial plexus [12] = details: 30 ml; cited from earlier work
[13] = plasma-Intralipid mixture, n=3; cited from earlier work
bupivacaine mortality = details: cited from earlier work
[14] = test system: bupivacaine-induced asystole; details: cited from earlier work
total spinal anesthesia [15] = details: in vivo; cited from earlier work
total spinal anesthesia [16] = details: in vivo; cited from earlier work; remark: listed apart in the source
brachial plexus [17] = details: in vivo; cited from earlier work
brachial plexus [18] = details: in vivo; cited from earlier work; remark: listed apart in the source
[19] = test system: acetylcholinesterase (AChE) / neuronal degeneration; details: cited from earlier work; for serum AChE: rat, in vivo
post operative delirium = experiment: Lipid Emulsion Treatment of post operative delirium/POCD, 4 case reports; format: in vivo, human; details: case 1, 60 min
traumatic brain injury = details: cited from earlier work

COc1ccc2c(c1)CC[C@@H]1[C@@H]2CC[C@]2(C)[C@@H](NCCCCCCN3C(=O)C=CC3=O)CC[C@@H]12 [U73122]
FFA efflux during ischemia-reperfusion injury (PLA(2) and PLC): had no observed effect

Clc1cccc(Cl)c1N=C1NCCN1 [clonidine, clonidine hydrochloride]
duration of block (brachial plexus [1]): 994.2 ± 34.2 min

CCOC(=O)[C@@H]1C2CCC(C[C@@H]1OC(=O)c1ccccc1)N2C (stereo partly drawn) [cocaethylene]
lipid-dependent mitochondrial respiration [2]: inhibited

Ryanodine
I/R-evoked FFA efflux (free fatty acid efflux): significantly enhanced ischemia/reperfusion-elicited efflux of linoleic acid

CCCC(C)C1(CC)C(=O)NC(=S)NC1=O (stereo not drawn) [thiopental]
injured animals [3]: 100%

ecgonine
lipid-dependent mitochondrial respiration [2]: not

N[C@H](C(=O)O)c1ccc(O)cc1 [Oxfenicine, oxfenicine]
effect of pretreatment on benefit of Intralipid [4]: completely abolished

Cc1ccc(N(CC2=NCCN2)c2cccc(O)c2)cc1 [PM (OraVerse), phentolamine mesylate]
duration of residual STA [5]: significantly decrease the duration of residual STA
safety outcomes in school-based dental clinic [5]: improve safety outcomes

CN1CCN(CCCN2c3ccccc3Sc3ccc(C(F)(F)F)cc32)CC1 [trifluoperazine]
I/R-evoked FFA efflux (free fatty acid efflux): very effective in suppressing ischemia/reperfusion evoked release of all six FFAs

CCCCOc1cc(C(=O)NCCN(CC)CC)c2ccccc2n1 [dibucaine]
kind of inhibition (mitochondrial ATPase): non-competitive

DL-AP5
effect on emulsion-induced currents [6]: inhibited

Cn1cc(C2=C(c3ccc(Cl)cc3Cl)C(=O)NC2=O)c2ccccc21 [SB216763]
cardioprotection in sham-operated hearts exposed to IR ([7]; 1% ILP 15 min): conferred cardioprotection
cardioprotection in hypertrophied myocardium [7]: failed to exert cardioprotection

C1CCC[C@H]2CCCN3CC[C@@H](CCCCCC[C@@H]4CCCN5CC[C@@H](CC1)O[C@@H]45)O[C@@H]23 [Xestospongin C]
I/R-evoked FFA efflux (free fatty acid efflux): failed to affect I/R-evoked FFA efflux

CCOC(=O)c1ccc(N)cc1 [benzocaine]
inhibition of the enzyme (mitochondrial ATPase): inhibits the enzyme at all pH values

O=C1CN(/N=C/c2ccc(-c3ccc([N+](=O)[O-])cc3)o2)C(O)=N1 [Dantrolene]
I/R-evoked FFA efflux (free fatty acid efflux): significantly inhibited I/R-evoked release of docosahexaenoic, arachidonic, linoleic and oleic acids

O=C1O/C(=C/Br)CCC1c1cccc2ccccc12 (stereo not drawn) [BEL, bromoenol lactone]
FFA efflux during ischemia-reperfusion injury (PLA(2) and PLC): had only minimal effects on FFA efflux

CNC(=O)c1c(I)c(NC(C)=O)c(I)c(C(=O)O)c1I.CNC[C@H](O)[C@@H](O)[C@H](O)[C@H](O)CO [iothalamate meglumine 30%, iothalamate meglumine]
pathologic response in tube or peritoneal cavity ([8]; rabbit, in vivo): no pathologic response

CCCCC/C=C\C/C=C\C/C=C\C/C=C\CCCC(=O)O [Arachidonic acid, 5,8,11,14-eicosateraenoic acid]
protection from glutamate and H(2)O(2) injury (hippocampal slices; 1-10 microM): dose dependently protected

picrotoxin
effect on emulsion-induced currents [6]: not affected

FC(F)OC(Cl)C(F)(F)F (stereo not drawn) [IS, isoflurane]
plasma lactate dehydrogenase ([9]; 3 h after reperfusion, group C 676+/−82): 456+/−58 U/L
plasma creatine kinase ([9]; 3 h after reperfusion, group C 2373+/−529): 1725+/−230 U/L
myocardial infarct size 3 h after reperfusion ([9]; group C 39%+/−6%): 20%+/−8%

C[N+](C)(C)CC[N+]1(C)Cc2c(Cl)c(Cl)c(Cl)c(Cl)c2C1 [chlorisondamine]
lowering of MAP ([10]; 2.5 mg/kg IV): 56+/−3%

C[C@@H]1C[C@@H]([C@H](O)CC2CC(=O)NC(=O)C2)C(=O)[C@@H](C)C1 [CHX, cycloheximide]
effect on neuroprotection by arachidonic acid (hippocampal slices; BADGE 100 microM, CHX 30 microM): completely abolished

CCCCN1CCCCC1C(=O)Nc1c(C)cccc1C (stereo not drawn) [bupivacaine]
AUC of the lipid-un-entrapped bupivacaine portion ([11]; after Intralipid): 97.0(14.5) mg·min/L
AUC of total bupivacaine, mean (standard deviation) ([11]; after Intralipid): 105.2(13.6) mg·min/L
un-entrapped AUC lower than total bupivacaine ([11]; after Intralipid): 8%
AUC of total bupivacaine, mean (standard deviation) ([11]; after Ringer's acetate): 88.1(7.1) mg·min/L
Duration of procedures it is appropriate for (spinal anesthesia; long acting spinal anesthetic): 2 to 2.5 h
Onset (spinal anesthesia; spinal anesthetic, longer with isobaric forms): 5 to 10 min
duration of motor block (brachial plexus [12]): 12.94 h
duration of sensory block (brachial plexus [12]): 11.58 h
onset of motor block (brachial plexus [12]): 21.45 ± 4.45 min
onset of sensory block (brachial plexus [12]): 16.85 ± 6.67 min
mean lipid:aqueous ratio of concentrations [13]: 11.9+/−1.77
dose of bupivacaine required to cause death in 50% of animals (bupivacaine mortality; resuscitation with 30% Intralipid): 18.5 mg/kg
dose of bupivacaine required to cause death in 50% of animals (bupivacaine mortality; resuscitation with saline): 12.5 mg/kg
concentration of bupivacaine in plasma, mean+/−SE ([14]; 30% Intralipid): 212+/−45 micrograms per millilitre
median dose of bupivacaine producing asystole ([14]; after saline pretreatment): 17.7 milligrams per kilogram
concentration of bupivacaine in plasma, mean+/−SE ([14]; saline): 93.3+/−7.6 micrograms per millilitre
mean duration of action (total spinal anesthesia [15]): 1.511 to 3 h
further time to consciousness (total spinal anesthesia [16]): 65 min
time to spontaneous respiration (total spinal anesthesia [16]): 120 min
patients requiring supplementation (brachial plexus [17]): 9 of the 22
muscle relaxation judged as excellent (brachial plexus [18]): 30/49

4-bromophenylacyl bromide [BPB]
FFA efflux during ischemia-reperfusion injury (PLA(2) and PLC): significantly inhibited FFA efflux

CCOP(=S)(OCC)Oc1nc(Cl)c(Cl)cc1Cl [chlorpyriphos, Chlorpyriphos]
serum AChE [19]: inhibited AChE

C/C=C(/C)C(=O)O[C@H]1C(C)=C2[C@H]([C@@H]1OC(=O)CCCCCCC)[C@@](C)(OC(C)=O)C[C@H](OC(=O)CCC)[C@@]1(O)[C@H]2OC(=O)[C@@]1(C)O [Thapsigargin]
FFA efflux in the absence of ischemia (free fatty acid efflux; rat, in vivo): elicited significant elevations in the efflux of myristic, arachidonic and linoleic acids

CNC1(c2ccccc2Cl)CCCCC1=O (stereo not drawn) [ketamine]
effect on emulsion-induced currents [6]: inhibited

O=C(CCCN1CCC(O)(c2ccc(Cl)cc2)CC1)c1ccc(F)cc1 [Haloperidol]
agitation after conventional sedatives (post operative delirium): had not improved

CN1[C@H]2CC[C@@H]1[C@@H](C(=O)O)[C@@H](OC(=O)c1ccccc1)C2 [benzoylecgonine]
lipid-dependent mitochondrial respiration [2]: not

CN(C)CCCN1c2ccccc2Sc2ccc(Cl)cc21 [chlorpromazine]
kind of inhibition (mitochondrial ATPase): non-competitive

O=C(/C=C/c1ccc(O)c(O)c1)OCCc1ccccc1 [CAPE, caffeic acid phenethyl ester]
neuronal degeneration ([19]; histologic examination): significant effect on protection of neuronal degeneration
serum AChE [19]: inhibited AChE

CCN(CC)CC(=O)Nc1c(C)cccc1C [lidocaine]
kind of inhibition (mitochondrial ATPase): non-competitive
further time to consciousness (total spinal anesthesia [16]): 80 min
time to spontaneous respiration (total spinal anesthesia [16]): 45 min

CC(=O)N(CC(O)CO)c1c(I)c(C(=O)NCCO)c(I)c(C(=O)NCC(O)CO)c1I (stereo not drawn) [Ioxilan, ioxilan]
pathologic response in tube or peritoneal cavity ([8]; histology): no pathologic response

Cc1ncc2n1-c1ccc(Cl)cc1C(c1ccccc1F)=NC2 [midazolam]
agitation after conventional sedatives (post operative delirium): had not improved

CNC(=O)c1c(I)c(NC(C)=O)c(I)c(C(=O)O)c1I.CNC[C@H](O)[C@@H](O)[C@H](O)[C@H](O)CO [Iothalamate meglumine 60%, iothalamate meglumine]
pathologic response in tube or peritoneal cavity ([8]; rabbit, in vivo): mild inflammatory infiltrate, mucosal edema, giant cell reaction, and periovarian adhesions

CC(C)(c1ccc(OCC2CO2)cc1)c1ccc(OCC2CO2)cc1 (stereo not drawn) [BADGE, bisphenol A diglycidyl ether]
effect on neuroprotection by arachidonic acid (hippocampal slices): completely abolished

20% BSA
effect on propofol induced cortical burst suppression ([10]; EEG): −2+/−1%

conjugated linoleic acids [CLA]
latency to find the hidden MWM platform (traumatic brain injury; CCI-injured, saline 30.7±5.5): 66.8 ± 10.6 s
latency to find the hidden Morris Water Maze platform (traumatic brain injury; Sham, saline 8.8±1.7): 40.3 ± 13.0 s
